Data published in patent US10849875B2, “Cancer specific lipid targeted peptidomimetics” (University of Houston System, priority 2015, dated 2020).
Positions of bridges follow the written chain, without caps; N, C: chain ends. Non-standard residues stand in square brackets, D forms with d. Residues, ends and D or L forms follow the SMILES beside them. Chains are numbered I, II in the order given. Gly(N-piperonyl) = O=C(O)CNCc1ccc2c(c1)OCO2; N(4-MeOBn)Gly = COc1ccc(CNCC(=O)O)cc1; Nrpe = C[C@@H](NCC(=O)O)c1ccccc1; Nlys = NCCCCNCC(=O)O

Tested on: HCC4017, H460, H358, H441, H1819, H1993, H2122, MD-MB-231 and PC3 cells
Test: In vitro cancer cell killing (MTS cell viability assays and FACS studies)
Format: cell-based, human
Details: lung, breast and prostate cancer cells
Text: Various derivatives of PPS1 have been developed that have similar and improved activities. FIGS. 15-22, 36-51.

Question: With `COc1ccc(CN(CC(=O)N(CCCCN)CC(=O)N[C@@H](CCCCN)C(=O)N[C@H](CCCCN)C(=O)N[C@@H](CCSC)C(=O)NCCCC[C@H](NC(=O)[C@H](CCSC)NC(=O)[C@@H](CCCCN)NC(=O)[C@H](CCCCN)NC(=O)CN(CCCCN)C(=O)CN(Cc2ccc(OC)cc2)C(=O)CN(C(=O)CN(Cc2ccc3c(c2)OCO3)C(=O)CN[C@H](C)c2ccccc2)[C@H](C)c2ccccc2)C(N)=O)C(=O)CN(C(=O)CN(Cc2ccc3c(c2)OCO3)C(=O)CN[C@H](C)c2ccccc2)[C@H](C)c2ccccc2)cc1` [PPS1D1] (I: H-[Nrpe][Gly(N-piperonyl)][Nrpe][N(4-MeOBn)Gly][Nlys]K[dK]MK-NH2 / II: H-[Nrpe][Gly(N-piperonyl)][Nrpe][N(4-MeOBn)Gly][Nlys]K[dK]M; amide I:9-II:C; N-terminus assumed) as the molecule, how does the “in vitro cancer cell killing activity” value read?
Answer: Its value is “strong in vitro cancer cell killing activity”.
